Data reported in US11203595B2, “Aza-indazole compounds for use in tendon and/or ligament injuries” (NOVARTIS AG, priority 2016, dated 2021).
Where two headings read alike, the source gives them in different places.

Assays:
[1] = test system: Scleraxis (Scx) gene transcriptional activation, TT-D6 Scx-luciferase (ScxL) cell line; experiment: SCX-LUC in vitro assay (scleraxis-luciferase reporter); type: cell-based, mouse; settings: read-out: Scx-Luc (EC50 μM)
[2] = Cumulative release of microparticle formulations in PBS buffer (FIG. 1); type: physicochemical; settings: incorporated into PLGA microparticles; following the initial burst; PBS buffer pH 7.4, 1% Tween 20
[3] = In-vivo release from microparticles in a rat model; settings: PLGA microparticles
[4] = Mus musculus, 96 h, TT-D6 Scx-luciferase cells, 1 ng/ml TGFβ1, four days

| Compound | EC50 [1, 4] | other results |
| --- | --- | --- |
| Nc1n[nH]c2ccc(-c3ccc(S(=O)(=O)NC4CCC(O)(C(F)(F)F)CC4)cc3Cl)nc12 [4-(3-amino-1H-pyrazolo[4,3-b]pyridin-5-yl)-3-chloro-N-((1R,4R)-4-hydroxy-4-(trifluoromethyl)cyclohexyl)benzenesulfonamide] | – | EC50 ([1]; TT-D6 Scx-luciferase cells, 1 ng/ml TGFβ1, four days): > 10 µM |
| Nc1n[nH]c2ccc(-c3ccc(S(=O)(=O)N4CCC[C@H]4CO)cc3Cl)nc12 [(S)-(1-((4-(3-amino-1H-pyrazolo[4,3-b]pyridin-5-yl)-3-chlorophenyl)sulfonyl)pyrrolidin-2-yl)methanol] | > 10 µM | – |
| Cc1cc(S(=O)(=O)N[C@H]2C[C@](O)(C(F)(F)F)C2)ccc1-c1ccc2[nH]nc(N)c2n1 [Example 2, 4-(3-amino-1H-pyrazolo[4,3-b]pyridin-5-yl)-N-((1s,3s)-3-hydroxy-3-(trifluoromethyl)cyclobutyl)-3-methylbenzenesulfonamide] | – | period of steady state release of drug [2]: 21 days; extended release in-vivo [3]: 4 weeks |
| Nc1n[nH]c2ccc(-c3ccc(S(=O)(=O)N[C@H]4CCC[C@H]4O)cc3Cl)nc12 [Example 35, 4-(3-amino-1H-pyrazolo[4,3-b]pyridin-5-yl)-3-chloro-N-((1S,2R)-2-hydroxycyclopentyl)benzenesulfonamide] | – | EC50 ([1]; Mus musculus, 96 h): 2.73 µM |
| Nc1n[nH]c2ccc(-c3ccc(NS(=O)(=O)c4ccccc4)cc3Cl)nc12 [Example 46, N-(4-(3-amino-1H-pyrazolo[4,3-b]pyridin-5-yl)-3-chlorophenyl)benzenesulfonamide] | 0.01 µM | – |
| Nc1n[nH]c2ccc(-c3ccc(S(=O)(=O)NC4CCS(=O)(=O)CC4)cc3Cl)nc12 [Example 50, 4-(3-amino-1H-pyrazolo[4,3-b]pyridin-5-yl)-3-chloro-N-(1,1-dioxidotetrahydro-2H-thiopyran-4-yl)benzenesulfonamide] | > 10 µM | – |
| CNS(=O)(=O)c1ccc(S(=O)(=O)Nc2ccc(-c3ccc4[nH]nc(N)c4n3)c(Cl)c2)cc1 [Example 76, N1-(4-(3-amino-1H-pyrazolo[4,3-b]pyridin-5-yl)-3-chlorophenyl)-N4-methylbenzene-1,4-disulfonamide] | 0.003 µM | – |
